{
  "source": "patent US6441000B1",
  "about": "“Compounds useful in therapy” (Pfizer Inc, priority 1999, dated 2002)",
  "data": [
    {"biological_target": "T1, mu opioid receptor (Canis lupus familiaris, UniProt A0A0F6TMT6)", "T1 construct": "from tissue; host or cells: beagle brain without cerebellum, membrane homogenate", "T1 sequence (A0A0F6TMT6 1-401)": "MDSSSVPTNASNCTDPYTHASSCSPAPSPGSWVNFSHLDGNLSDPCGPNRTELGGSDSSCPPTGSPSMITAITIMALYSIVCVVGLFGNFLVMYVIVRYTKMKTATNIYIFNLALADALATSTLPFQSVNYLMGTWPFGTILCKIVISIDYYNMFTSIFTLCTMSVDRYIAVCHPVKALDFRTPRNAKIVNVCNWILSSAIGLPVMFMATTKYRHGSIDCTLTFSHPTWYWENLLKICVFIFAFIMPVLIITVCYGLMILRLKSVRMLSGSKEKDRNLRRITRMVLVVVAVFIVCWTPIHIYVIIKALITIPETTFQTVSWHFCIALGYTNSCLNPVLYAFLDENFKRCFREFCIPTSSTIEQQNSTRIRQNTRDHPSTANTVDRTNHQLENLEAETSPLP", "assay": "mu opioid receptor binding assay (displacement of 3H-DAMGO) in dog brain membranes", "conditions": "3H ligand DAMGO, room temperature 90 minutes, read-out: Ki values for the μ receptor", "procedure": "The assays were conducted by the following procedure.\nLaboratory bred beagles were used as a source of dog brain tissue. Animals were euthanised, their brains removed and the cerebellum discarded. The remaining brain tissue was sectioned into small pieces approximately 3 g in weight and homogenised in 50 mM Tris pH 7.4 buffer at 4° C. using a Kinematica Polytron™ tissue homogeniser. The resulting homogenate was centrifuged at 48,400×g for 10 minutes and the supernatant discarded. The pellet was resuspended in Tris buffer and incubated at 37° C. for 10 minutes. Centrifugation, resuspension and incubation steps were repeated twice more, and the final pellet was resuspended in Tris buffer and stored at −80° C. Membrane material prepared in this manner could be stored for up to four weeks prior to use.\nFor mu assays, increasing concentrations of experimental compound, (5×10^−12 to 10^−5 M), Tris buffer and ^3H ligand, ([D-Ala^2,N-Me-Phe^4,Gly-ol^5]-Enkephalin, DAMGO), were combined in polystyrene tubes. The reaction was initiated by the addition of tissue, and the mixture was incubated at room temperature for 90 minutes. The reaction was terminated by rapid filtration using a Brandel Cell Harvester™ through Betaplate™ GF/A glass fibre filters pre-soaked in 50 mM Tris pH 7.4, 0.1% polyethylenimine buffer. The filters were then washed three times with 0.5 mL ice-cold Tris pH 7.4 buffer. Washed filters were placed in bags and Starscint™ scintillant added. Bags containing the filters and scintillant were heat sealed and counted by a Betaplate™ 1204 beta counter.\nDuplicate samples were run for each experimental compound and the data generated was analysed using IC50 analysis software in Graphpad Prism.\nKi values were calculated using Graphpad Prism according to the following formula:\nKi=IC50/1+[^3H ligand]/KD\nwhere IC50 is the concentration at which 50% of the ^3H ligand is displaced by the test compound and KD is the dissociation constant for the ^3H ligand at the receptor site.", "units": {"Ki": "µM"}, "values": [
      {"smiles": "CCCCCCN1CCC(C)(c2ccc3[nH]c(C)nc3c2)C(C)C1", "note": "(racemic) [Example 3, Trans-(±)-2-Methyl-5-(1-hexyl-3,4-dimethyl-4-piperidinyl)-1H-benzimidazole]", "Ki": "≤ 4"},
      {"smiles": "CCCCCCN1CCC(C)(c2ccc3[nH]c(OC)nc3c2)C(C)C1", "note": "(racemic) [Example 7, Trans-(±)-2-Methoxy-5-(1-hexyl-3,4-dimethyl-4-piperidinyl)-1H-benzimidazole]", "Ki": "≤ 4"},
      {"smiles": "CCCCCCN1CCC(C)(c2ccc3nc(C)oc3c2)C(C)C1", "note": "(racemic) [Example 28, Trans-(±)-2-Methyl-6-(1-hexyl-3,4-dimethyl-4-piperidinyl)-1,3-benzoxazole]", "Ki": "≤ 4"},
      {"smiles": "CC(C)CCCCN1CCC(C)(c2ccc3[nH]cnc3c2)C(C)C1", "note": "(racemic) [Example 21, Trans-(±)-5-[1-(5-Methylhexyl)-3,4-dimethyl-4-piperidinyl]-1H-benzimidazole]", "Ki": "≤ 4"},
      {"smiles": "CCCCCCN1CCC(C)(c2ccc3[nH]c(CC)nc3c2)C(C)C1", "note": "(racemic) [Example 12, Trans-(±)-2-ethyl-5-(1-Hexyl-3,4-dimethyl-4-piperidinyl)-1H-benzimidazole]", "Ki": "≤ 4"},
      {"smiles": "Cc1cccc(CCN2CCC(C)(c3ccc4[nH]c(C(F)(F)F)nc4c3)C(C)C2)c1", "note": "(racemic) [Example 18, Trans-(±)-2-(Trifluoromethyl)-5-[1-(3-methylphenethyl)-3,4-dimethyl-4-piperidinyl]-1H-benzimidazole]", "Ki": "≤ 4"}
    ]}
  ]
}
